target: CDK2 (human) (UniProt P24941); assay: Enzyme Assay

Ki, < 1000 nM:
O=c1[nH][nH]c2cc(CCC3COCC(Nc4ccccn4)C3)ccc12 (centres undefined)
O=C(CCNc1cc(C2CC2)[nH]n1)Oc1ccc2c(=O)[nH][nH]c2c1
Cn1cnc(NC2COCC(Sc3ccc4c(=O)[nH][nH]c4c3)C2)c1 (centres undefined)
N#Cc1cc(Nc2n[nH]c3ccccc23)nc(-c2ccc3[nH][nH]c(=O)c3c2C(F)(F)F)n1
Cn1cnc(NC2CCCC(Nc3ccc4c(=O)[nH][nH]c4c3)C2)c1 (centres undefined)
O=c1[nH][nH]c2cc(CC(CCNc3nccnn3)Cc3ccccc3)ccc12 (centres undefined)
Cc1cnc(NC2CCCC(c3ccc4[nH][nH]c(=O)c4c3)C2)s1 (centres undefined)
Cn1cnc(NCCCCc2ccc3c(=O)[nH][nH]c3c2)c1
O=c1[nH][nH]c2cc(Nc3nc(Nc4cc(C5CC5)[nH]n4)c4cc(-c5ccccc5)ccc4n3)ccc12
CCc1cc(Nc2nc(Nc3ccc4c(=O)[nH][nH]c4c3)nc3ccc(-c4ccccc4)cc23)n[nH]1
Cn1cnc(NC(CCNc2ccc3c(=O)[nH][nH]c3c2)c2ccccc2)c1 (centres undefined)
Cc1cc(Nc2cc(C)[nH]n2)nc(Nc2ccc3c(=O)[nH][nH]c3c2)n1
O=c1[nH][nH]c2cc(Nc3cc4ccccc4c(Nc4cc(C5CC5)[nH]n4)n3)ccc12
NC(=O)c1cc(-c2ncnc(Nc3n[nH]c4c3CCC(=O)C4)n2)cc2c(=O)[nH][nH]c12
Cc1cc(Nc2cc(N3CCN(C)CC3)nc(Sc3ccc4c(=O)[nH][nH]c4c3)n2)n[nH]1
O=C(CCNc1ccccn1)Nc1ccc2c(=O)[nH][nH]c2c1
COCCCc1cc(Nc2nc(-c3ccc4[nH][nH]c(=O)c4c3)nc3ccccc23)n[nH]1
O=C(CCNc1ccc2c(=O)[nH][nH]c2c1)Nc1cc(C2CC2)[nH]n1
Cc1cc(Nc2cc(-c3c(C)cccc3C)nc(Oc3ccc4c(=O)[nH][nH]c4c3)n2)n[nH]1

— the Kinase Knowledgebase extract (Sharma et al. 2016)
